Measurements taken from ChEMBL document CHEMBL2157896, “Engineering pH-gated transitions for selective and efficient double-strand DNA photocleavage in hypoxic tumors” (J Med Chem, 2011).

What was measured:
Assay type in all cases: nucleic-acid assay
Nucleic Acid [1] = assay: Induction of photochemical DNA cleavage in Escherichia coli pBR322 assessed as form 2 level at 15 uM in pH 6.0 phosphate buffer measured after 6 mins of UV irradiation
Nucleic Acid [2] = assay: Induction of photochemical DNA cleavage in Escherichia coli pBR322 assessed as form 3 level at 15 uM in pH 7.0 phosphate buffer measured after 2 mins of UV irradiation
Nucleic Acid [3] = assay: Induction of photochemical DNA cleavage in Escherichia coli pBR322 assessed as form 3 level at 15 uM in pH 8.0 phosphate buffer measured after 10 mins of UV irradiation
Nucleic Acid [4] = assay: Induction of photochemical DNA cleavage in Escherichia coli pBR322 assessed as form 3 level at 15 uM in pH 6.0 phosphate buffer measured after 0.5 mins of UV irradiation
Nucleic Acid [5] = assay: Induction of photochemical DNA cleavage in Escherichia coli pBR322 assessed as form 2 level at 15 uM in pH 8.0 phosphate buffer measured after 4 mins of UV irradiation
Nucleic Acid [6] = assay: Induction of photochemical DNA cleavage in Escherichia coli pBR322 assessed as form 2 level at 15 uM in pH 6.0 phosphate buffer measured after 2 mins of UV irradiation
Nucleic Acid [7] = assay: Induction of photochemical DNA cleavage in Escherichia coli pBR322 assessed as form I level at 15 uM in pH 6.0 phosphate buffer measured after 0.5 mins of UV irradiation

- Activity (Nucleic Acid [1]): 48.1%
- Activity (Nucleic Acid [2]): 12.7%
- Activity (Nucleic Acid [3]): 21.3%
- Activity (Nucleic Acid [4]): 13.5%
- Activity (Nucleic Acid [5]): 41.4%
- Activity (Nucleic Acid [6]): 54.2%
- Activity (Nucleic Acid [7]): 26.5%
SMILES: NCCCC[C@H](N)C(=O)NCCCC[C@H](N)C(=O)Nc1ccc(C#Cc2c(F)c(F)nc(F)c2F)cc1.O=C(O)C(F)(F)F
